Laboratory results from patent US20230346831A1, “METHODS FOR TREATING […] USING LOW DOSE CARBON MONOXIDE” (priority 2020, published 2023).

Legend:
[1] = test system: FLVCR1; test: expression of heme exporter; type: cell-based, human; conditions: MCF7/TGL and MDA-MB-231/TGL cells; with or without 250 ppm CO
Excerpt: To investigate how CO reduces heme levels, whether CO decreased the transportation of heme into the cytosol was examined. […] Furthermore, heme oxygenases (HO-1, HO-2, and HO-3) cleave heme into 3 products: CO, ferrous ions (Fe2+), and biliverdin. […] So, whether there was an increase of HO-1 expression by low-dose CO treatment that could contribute to heme degradation was examined. […] Likewise, changes in protein levels of Bach 1 (a physiological repressor of HO-1 and a pro-metastatic transcription factor, whose degradation is reported to be mediated by heme in Nrf2-mutated lung cancer) was not detected (FIG. 4E). […] Taken together, CO decreased heme importers to lower intracellular heme levels, which inhibited cancer cell migration.

[2] = test system: Bach 1; test: Western blot analysis; type: cell-based, human; conditions: two breast cancer cell lines (MCF7, MDA-MB-231); 250 ppm CO
Procedure: (§1) 1.5 × 10^6 cells were seeded in 6-cm cell culture plates with DMEM containing 10% FBS, 0.2 mM L-glutamine and 1% penicillin/streptomycin. Additionally, MCF7/TGL/pQ was cultured in media containing 0.5 µgml^-1 puromycin and 25 mM HEPES. After 16 hours of incubation, cells were lysed with RIPA buffer (0.1% SDS, 1% TritonX-100, 0.5% sodium deoxycholate, 25 mM Tris pH 8.0, 150 mM NaCl, and 1 mM EDTA) supplemented with a protease inhibitor mixture and PhosSTOP (Roche, Basel, Switzerland). Proteins were quantified with Bradford assay (Bio-Rad, Hercules CA). Equal amounts of proteins were separated with SDS-PAGE and transferred to nitrocellulose membranes. […] Protein bands were visualized by enhanced chemical luminescence (Pierce, Dallas, TX).
(§2) To investigate how CO reduces heme levels, whether CO decreased the transportation of heme into the cytosol was examined. […] Likewise, changes in protein levels of Bach 1 (a physiological repressor of HO-1 and a pro-metastatic transcription factor, whose degradation is reported to be mediated by heme in Nrf2-mutated lung cancer) was not detected (FIG. 4E). […]

[3] = test system: HO-1; test: Western blot analysis; type: cell-based, human; conditions: two breast cancer cell lines (MCF7, MDA-MB-231); 250 ppm CO
Procedure: as §1, §2

[4] = test system: CYP1B1; test: quantitative real-time reverse transcription PCR; type: cell-based, human; conditions: MCF7 and MDA-MB-231 cells; 250 ppm CO
Procedure: (§3) mRNA was isolated from cells (MCF7/TGL and MDA-MB-231/TGL) grown on 6-cm dishes using RNeasy mini kit (Qiagen, Hilden, Germany) containing gDNA Eliminator spin columns. cDNA was generated using the SuperScript III First-strand synthesis system with random hexamers (Invitrogen, Carlsbad, CA), and power SYBR green (Invitrogen, Carlsbad, CA)-based quantitative real-time PCR was performed using primer specific for HRG1 (human, forward: 5′- […] -3′ (SEQ ID NO: 1), reverse: 5′- […] -3′ (SEQ ID NO: 2)) or HCP1 (human forward: 5′- […] -3′ (SEQ ID NO: 3), reverse: 5′-[…] -3′ (SEQ ID NO: 4)), CYP1B1 (human, forward: 5′TGAGTGCCGTGTGTTTCGG -3′ (SEQ ID NO: 5), reverse: 5′-[…] -3′ (SEQ ID NO: 6)), SP1 (human, forward: 5′-GTGGCCGCTACCTTCACTG -3′ (SEQ ID NO: 7), reverse: 5′-GCCCCACTCCTACTTGGTC -3′ (SEQ ID NO: 8)) with the comparative CT method (ΔΔCT; ABI).
(§4) Heme is known to stimulate synthesis of many hemoproteins. Accordingly, hemoproteins whose expression was differentially regulated by low-dose CO in MCF7 and MDA-MB-231 cell lines were screened. CYP1B1, a heme-regulated protein, was identified as a top candidate in the list because of its following properties. First, CYP1B1 has been reported to induce the expression of SP1 transcription factor, and Sp1 interacts with Myc for synergistic transcriptional regulation for Myc target genes. […]

[5] = test system: SP1; test: quantitative real-time reverse transcription PCR; type: cell-based, human; conditions: MCF7 and MDA-MB-231 cells; 250 ppm CO
Procedure: as §3, §4

[6] = test system: CYP1B1; test: Western blot analysis; type: cell-based, human; conditions: 250 ppm CO
Procedure: 1.5 × 10^6 cells were seeded in 6-cm cell culture plates with DMEM containing 10% FBS, 0.2 mM L-glutamine and 1% penicillin/streptomycin. Additionally, MCF7/TGL/pQ was cultured in media containing 0.5 µgml^-1 puromycin and 25 mM HEPES. After 16 hours of incubation, cells were lysed with RIPA buffer (0.1% SDS, 1% TritonX-100, 0.5% sodium deoxycholate, 25 mM Tris pH 8.0, 150 mM NaCl, and 1 mM EDTA) supplemented with a protease inhibitor mixture and PhosSTOP (Roche, Basel, Switzerland). Proteins were quantified with Bradford assay (Bio-Rad, Hercules CA). Equal amounts of proteins were separated with SDS-PAGE and transferred to nitrocellulose membranes. To visualize equal protein loading, blots were stained with Ponceau S. Blots were incubated in 5% non-fat milk in TBST, probed with primary antibodies to CYP1B1 (1:1,000, Abcam, Cambridge, United Kingdom, Cat. No. 32649), HO-1 (1:1,000, Santa Cruz Biotechnology, Dallas, TX, Cat. No. 136960), BACH1 (1:1,000, ABclonal, Woburn, MA, Cat. No. A5393), E-cadherin (1:1,1000, BD Biosciences (Cat. No. 610181), San Jose, CA), α-tubulin (1:1,000, Sigma (Cat. No. T5168), St. Louis MO), and vimentin (1:1,000, Cell Signaling Tech (Cat. No. 5741), Danvers, MA), and then were incubated with horseradish peroxidase-conjugated secondary antibodies. Protein bands were visualized by enhanced chemical luminescence (Pierce, Dallas, TX). […]

[7] = test system: non-malignant BJ fibroblasts; test: in vitro transwell migration assay; type: cell-based; conditions: 250 ppm CO
Procedure: Migration of different cancer cells under control air or 250 ppm CO treatment with or without supplement of 30 µM hemin was determined using in vitro transwell migration chamber with a serum gradient. Indicated cell lines were seeded into the transwell inserts. 16 hours later, cells on the top of the upper chambers were removed, and cells on the bottom surface of the transwell inserts were fixed, stained with crystal violet, and counted from eight randomly picked fields in three independent experiments. Error bars represent SEM. *: P < 0.05, two-sided t-test. Scale bar, 100 µm. […] Cells were seeded in the upper chamber of 8-µm porous polycarbonate membranes with DMEM containing 0% or 1% FBS, 0.2 mM L-glutamine, 1% penicillin/streptomycin. The lower chambers were filled with DMEM containing 10% or 20% FBS, 0.2 mM L-glutamine, and 1% penicillin/streptomycin (please see Table 1).
6.5 mm Transwell with 8.0 µm Pore Polycarbonate Membrane Insert (Corning, NY, Cat. No. 3422) was used for the cell migration assay (FIG. 1J). After 16 hours of incubation, cells migrated to the opposite side of the upper chambers were fixed with 4% paraformaldehyde, stained with 0.2% crystal violet for 30 min and counted in five fields under × 20 magnification. In parallel, cells were seeded on 24-well plates for proliferation assay. […] The optical density was measured at 595 nm (OD595). […]

SMILES: [C-]#[O+] [CO, Carbon monoxide]
- FLVCR1 (heme exporter) expression [1]: no significant/consistent changes
- changes in protein levels of Bach 1 [2]: not detected
- increase of HO-1 expression [3]: not detected
- CYP1B1 mRNA levels [4]: significantly reduced
- SP1 mRNA levels [5]: significantly reduced
- CYP1B1 protein levels ([6]; MCF7 and MDA-MB-231 cells): significantly reduced
- CYP1B1 protein levels ([6]; PDAC 8988T cells): reduced
- migration [7]: only slightly reduced
